Data published in paper PMC9862168, “Inhibition of ANO1 by Cis- and Trans-Resveratrol and Their Anticancer Activity in Human Prostate Cancer PC-3 Cells” (International Journal of Molecular Sciences, 2023).

Target: T1, ANO1 (Homo sapiens, UniProt Q5XXA6)
T1 sequence (Q5XXA6 1-986): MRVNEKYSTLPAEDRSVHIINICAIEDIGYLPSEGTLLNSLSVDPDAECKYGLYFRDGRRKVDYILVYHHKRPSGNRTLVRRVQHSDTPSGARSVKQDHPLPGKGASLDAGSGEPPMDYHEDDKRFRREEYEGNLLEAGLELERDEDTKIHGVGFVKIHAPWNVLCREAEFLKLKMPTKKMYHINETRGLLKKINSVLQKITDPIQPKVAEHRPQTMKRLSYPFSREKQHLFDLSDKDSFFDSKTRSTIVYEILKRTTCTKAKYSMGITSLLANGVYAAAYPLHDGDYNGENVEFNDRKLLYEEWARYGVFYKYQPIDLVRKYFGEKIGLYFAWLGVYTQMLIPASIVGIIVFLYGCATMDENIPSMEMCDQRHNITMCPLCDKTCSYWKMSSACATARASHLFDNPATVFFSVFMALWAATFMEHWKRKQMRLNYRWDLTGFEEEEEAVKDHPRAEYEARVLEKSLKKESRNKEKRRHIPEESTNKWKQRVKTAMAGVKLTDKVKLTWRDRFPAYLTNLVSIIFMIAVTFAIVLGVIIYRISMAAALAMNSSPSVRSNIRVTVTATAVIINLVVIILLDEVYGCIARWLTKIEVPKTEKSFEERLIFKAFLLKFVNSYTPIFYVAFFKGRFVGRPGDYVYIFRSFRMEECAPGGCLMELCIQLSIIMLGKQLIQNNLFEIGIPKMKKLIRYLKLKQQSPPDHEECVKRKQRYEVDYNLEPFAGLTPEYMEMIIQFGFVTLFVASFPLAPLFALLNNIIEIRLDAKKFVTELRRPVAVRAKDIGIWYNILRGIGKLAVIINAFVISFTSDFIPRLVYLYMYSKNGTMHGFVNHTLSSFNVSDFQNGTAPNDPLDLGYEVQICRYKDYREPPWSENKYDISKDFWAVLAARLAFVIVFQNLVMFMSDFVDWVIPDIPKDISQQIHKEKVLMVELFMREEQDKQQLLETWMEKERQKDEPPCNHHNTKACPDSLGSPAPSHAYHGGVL
Assay: YFP fluorescence quenching in FRT cells expressing human ANO1; also Ussing chamber and whole-cell patch clamp in HEK293T
Type: cell-based

Structure (SMILES)	IC50
Oc1ccc(/C=C\c2cc(O)cc(O)c2)cc1 [cis-resveratrol]	10.6 µM
Oc1ccc(/C=C/c2cc(O)cc(O)c2)cc1 [trans-resveratrol]	102 µM
